The values below come from US20150336943A1, “NOVEL BENZODIOXANE-PIPERIDINE DERIVATIVES AND THEIR THERAPEUTIC APPLICATIONS FOR TREATING NEUROPSYCHIATRIC DISORDERS” (PIERRE FABRE MEDICAMENT, priority 2013, published 2015).

Each structure is given as a SMILES string.

In assay [1] the test system is scopolamine-induced amnesia. Briefly: Passive avoidance memory test (scopolamine-induced amnesia) in rats. It is filed as in vivo. The following applies: for Latency to enter the dark compartment: scopolamine, measured 48 h after training, carrier 24±12. The method, then: Example 31 was evaluated in rats in a memory test, the passive avoidance test (Chopin P, Briley M. Effects of four non-cholinergic cognitive enhancers in comparison with tacrine and galanthamine on scopolamine-induced amnesia in rats, Psychopharmacology (Berl), 1992; 106:26-30). This test consists of teaching a rat not to enter a dark compartment (its naturally preferred place) where it had previously received an electric shock (0.8 mA). The animal's reticence (the time lapse or “latency” to enter the dark compartment) measured 48 h after its training is considered as an index of its explicit-declarative memory. Latency greatly […] when an amnesic product such as scopolamine is administered shortly after receiving the first shock. A product with promnesic properties opposes the effects of scopolamine.

The target in another assay is T1, dopaminergic receptor D2 (Homo sapiens, UniProt P14416).
T1 construct: expressed in transfected cells; host or cells: recombinant human cells (so in the source)
T1 sequence (P14416 whole entry): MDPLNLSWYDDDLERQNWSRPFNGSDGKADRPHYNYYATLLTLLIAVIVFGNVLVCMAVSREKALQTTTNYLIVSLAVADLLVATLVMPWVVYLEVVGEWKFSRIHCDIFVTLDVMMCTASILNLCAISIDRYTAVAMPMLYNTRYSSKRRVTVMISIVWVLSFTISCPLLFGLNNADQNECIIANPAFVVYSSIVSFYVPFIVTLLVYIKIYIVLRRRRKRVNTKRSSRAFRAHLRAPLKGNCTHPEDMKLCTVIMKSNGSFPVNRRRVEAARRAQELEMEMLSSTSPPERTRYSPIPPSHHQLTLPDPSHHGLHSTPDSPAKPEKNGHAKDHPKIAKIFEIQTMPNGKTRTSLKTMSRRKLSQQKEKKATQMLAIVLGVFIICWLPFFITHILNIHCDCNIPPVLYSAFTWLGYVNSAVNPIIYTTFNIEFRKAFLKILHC
Briefly: Inhibition constants (Ki) for dopaminergic receptor D2 in recombinant cells. It is filed as binding. The following applies: read-out: pKi D2 (converted). The procedure: (§1) Compounds of formula 1 have been evaluated in vitro as ligands for dopaminergic and noradrenergic receptors and modulators of the activity of these receptors according to the invention in recombinant human cells expressing the receptors. The inhibition constants (Ki) were measured for dopaminergic receptors D2 and D3, and for adrenergic receptors alpha2A, alpha2B and alpha2C, according to the described methods (Newman-Tancredi A, Assie M B, Martel J C, Cosi C, Slot L B, Palmier C, Rauly-Lestienne I, Colpaert F, Vacher B, Cussac D. F15063, a potential antipsychotic with D2/D3 antagonist, 5-HT 1A agonist and D4 partial agonist properties. I. In vitro receptor affinity and efficacy profile. Br J Pharmacol., 2007, 151:237-252). The intrinsic activity of the products for the D2 receptor was measured (Bruins Slot L A, De Vries L, Newman-Tancredi A, Cussac D. Differential profile of antipsychotics at serotonin 5-HT1A and dopamine D2S receptors coupled to extracellular signal-regulated kinase. Eur J Pharmacol, 2006, 534; 63-70. The results obtained for some of these compounds are presented in the following table.

Assay [2] addresses T2, adrenergic receptor alpha2C (Homo sapiens, UniProt P18825).
T2 construct: expressed in transfected cells; host or cells: recombinant human cells (so in the source)
T2 sequence (P18825 1-462): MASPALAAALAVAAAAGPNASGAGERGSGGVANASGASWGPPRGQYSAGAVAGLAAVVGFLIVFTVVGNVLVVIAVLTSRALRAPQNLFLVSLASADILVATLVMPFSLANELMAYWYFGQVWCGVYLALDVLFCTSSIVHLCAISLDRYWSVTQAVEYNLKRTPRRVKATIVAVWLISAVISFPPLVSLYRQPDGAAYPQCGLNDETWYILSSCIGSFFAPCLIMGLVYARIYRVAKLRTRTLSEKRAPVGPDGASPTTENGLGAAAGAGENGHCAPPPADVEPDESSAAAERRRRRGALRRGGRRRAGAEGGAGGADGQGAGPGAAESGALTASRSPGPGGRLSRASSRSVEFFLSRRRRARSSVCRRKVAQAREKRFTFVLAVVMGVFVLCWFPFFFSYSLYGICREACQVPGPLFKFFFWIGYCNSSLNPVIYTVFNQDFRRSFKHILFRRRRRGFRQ
Briefly: Inhibition constants (Ki) for adrenergic receptor alpha2C in recombinant cells. It is filed as binding. The following applies: read-out: pKi α2C (converted). The procedure:
as §1

Assay [3] addresses T3, adrenergic receptor alpha2B (Homo sapiens, UniProt P18089).
T3 construct: expressed in transfected cells; host or cells: recombinant human cells (so in the source)
T3 sequence (P18089 1-450): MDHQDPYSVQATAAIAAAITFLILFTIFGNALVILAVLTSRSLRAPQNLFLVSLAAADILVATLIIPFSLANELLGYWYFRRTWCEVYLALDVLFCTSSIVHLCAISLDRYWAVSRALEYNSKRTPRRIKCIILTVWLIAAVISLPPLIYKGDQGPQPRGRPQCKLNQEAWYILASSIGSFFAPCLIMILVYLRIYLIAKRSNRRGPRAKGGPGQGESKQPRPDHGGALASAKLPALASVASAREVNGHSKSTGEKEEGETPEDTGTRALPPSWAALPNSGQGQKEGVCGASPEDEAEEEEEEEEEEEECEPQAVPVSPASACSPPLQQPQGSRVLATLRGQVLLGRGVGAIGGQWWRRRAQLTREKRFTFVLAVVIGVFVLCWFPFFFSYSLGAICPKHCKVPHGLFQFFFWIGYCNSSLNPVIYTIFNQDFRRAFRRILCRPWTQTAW
Briefly: Inhibition constants (Ki) for adrenergic receptor alpha2B in recombinant cells. It is filed as binding. The following applies: read-out: pKi α2B (converted). The method, then:
as §1

In assay [4] the test system is MK-801-induced hyperactivity. The assay can be described thus: MK-801-induced hyperactivity test in mice. It is filed as in vivo. Conditions: Mus musculus.
A further assay addresses T4, dopaminergic receptor D3 (Homo sapiens, UniProt P35462).
T4 construct: expressed in transfected cells; host or cells: recombinant human cells (so in the source)
The assay can be described thus: Inhibition constants (Ki) for dopaminergic receptor D3 in recombinant cells. It is filed as binding. The following applies: read-out: pKi D3 (converted). The procedure:
as §1

Assay [5] concerns the target T5, adrenergic receptor alpha2A (Homo sapiens, UniProt P08913).
T5 construct: expressed in transfected cells; host or cells: recombinant human cells (so in the source)
T5 sequence (P08913 1-465): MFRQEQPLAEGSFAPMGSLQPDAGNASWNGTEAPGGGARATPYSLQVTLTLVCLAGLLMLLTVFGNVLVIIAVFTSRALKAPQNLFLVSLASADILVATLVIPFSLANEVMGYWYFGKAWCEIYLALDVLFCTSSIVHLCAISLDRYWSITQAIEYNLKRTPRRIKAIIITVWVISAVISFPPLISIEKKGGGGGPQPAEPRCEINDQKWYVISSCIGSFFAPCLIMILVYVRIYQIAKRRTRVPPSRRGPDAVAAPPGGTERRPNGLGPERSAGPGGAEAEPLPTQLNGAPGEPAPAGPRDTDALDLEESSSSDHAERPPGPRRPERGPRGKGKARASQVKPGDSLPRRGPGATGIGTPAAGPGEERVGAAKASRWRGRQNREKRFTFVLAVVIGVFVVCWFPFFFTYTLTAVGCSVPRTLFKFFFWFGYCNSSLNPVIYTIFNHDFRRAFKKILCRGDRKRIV
The assay can be described thus: Inhibition constants (Ki) for adrenergic receptor alpha2A in recombinant cells. It is filed as binding. Conditions: read-out: pKi α2A (converted). The procedure: as §1

The next assay concerns the target T6, D2 receptor (Homo sapiens, UniProt P14416).
T6 construct: expressed in transfected cells; host or cells: recombinant human cells (so in the source)
Briefly: Intrinsic (agonist) activity at the D2 receptor. It is filed as cell-based. The procedure:
The prior art mentions, for benzodioxane-piperidine derivatives bearing an amide, a urea or an imidazolidinone, as non-selective alpha2-antagonists (WO 97/28157, WO 98/02435); some of these products also have a weak affinity for the D2 dopaminergic receptor (T. Imbert, J. Med. Chem, 2000, 43: 3653-3664). […] Activity as a D2 and D3 receptor agonist was determined according to the described methods (Bruins Slot L A, De Vries L, Newman-Tancredi A, Cussac D. Differential profile of antipsychotics at serotonin 5-HT1A and dopamine D2S receptors coupled to extracellular signal-regulated kinase. Eur J Pharmacol, 2006, 534; 63-70; Bruins Slot L A, Palmier C, Tardif S, Cussac D. Action of novel antipsychotics at human dopamine D3 receptors coupled to G protein and ERK1/2 activation. Neuropharmacology, 2007, 53: 232-241) for the following compounds, such as described in WO 97/28157 and WO 98/02435; • 1-benzyl-3-(2-(1-((2,3-dihydrobenzo[b][1,4]dioxin-2-yl)methyl)piperidin-4-yl)ethyl)imidazolidin-2-one • 1-(2-(1-((2,3-dihydrobenzo[b][1,4]dioxin-2-yl)methyl)piperidin-4-yl)ethyl)-3-methylimidazolidin-2-one • 1-(2,6-dichlorophenyl)-3-(2-(1-((2,3-dihydrobenzo[b][1,4]dioxin-2-yl)methyl)piperidin-4-yl)ethyl)imidazolidin-2-one • 1-(2-(1-((2,3-dihydrobenzo[b][1,4]dioxin-2-yl)methyl)piperidin-4-yl)ethyl)-3-(pyridin-4-yl)imidazolidin-2-one • 3-(2-(1-((2,3-dihydrobenzo[b][1,4]dioxin-2-yl)methyl)piperidin-4-yl)ethyl)-1-phenylimidazolidine-2,4-dione • (S)—N-(2-(1-((2,3-dihydrobenzo[b][1,4]dioxin-2-yl)methyl)piperidin-4-yl)ethyl)-[1,1′-biphenyl]-4-carboxamide • (S)—N-(2-(1-((2,3-dihydrobenzo[b][1,4]dioxin-2-yl)methyl)piperidin-4-yl)ethyl)-4-(1H-pyrrol-1-yl)benzamide • (S)—N-(2-(1-((2,3-dihydrobenzo[b][1,4]dioxin-2-yl)methyl)piperidin-4-yl)ethyl)-4-(pyridin-4-yl)benzamide • (S)—N-(2-(1-((2,3-dihydrobenzo[b][1,4]dioxin-2-yl)methyl)piperidin-4-yl)ethyl)-4-(pyridin-3-yl)benzamide • (S)—N-(2-(1-((2,3-dihydrobenzo[b][1,4]dioxin-2-yl)methyl)piperidin-4-yl)ethyl)-9-oxo-9H-fluorene-1-carboxamide.
as §1

T6 sequence (P14416 1-414 isoform P14416-2): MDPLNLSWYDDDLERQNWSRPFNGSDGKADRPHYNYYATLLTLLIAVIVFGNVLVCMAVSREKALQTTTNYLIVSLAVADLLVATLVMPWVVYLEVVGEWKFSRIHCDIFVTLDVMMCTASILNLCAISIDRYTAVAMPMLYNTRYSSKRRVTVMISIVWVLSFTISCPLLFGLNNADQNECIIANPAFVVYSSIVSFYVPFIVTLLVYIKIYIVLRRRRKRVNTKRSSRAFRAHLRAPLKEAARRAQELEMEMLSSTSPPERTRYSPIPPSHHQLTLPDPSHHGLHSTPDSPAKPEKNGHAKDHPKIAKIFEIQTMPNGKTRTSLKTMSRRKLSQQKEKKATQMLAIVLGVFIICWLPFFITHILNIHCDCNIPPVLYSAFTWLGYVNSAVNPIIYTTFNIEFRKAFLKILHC
T4 sequence (P35462 whole entry): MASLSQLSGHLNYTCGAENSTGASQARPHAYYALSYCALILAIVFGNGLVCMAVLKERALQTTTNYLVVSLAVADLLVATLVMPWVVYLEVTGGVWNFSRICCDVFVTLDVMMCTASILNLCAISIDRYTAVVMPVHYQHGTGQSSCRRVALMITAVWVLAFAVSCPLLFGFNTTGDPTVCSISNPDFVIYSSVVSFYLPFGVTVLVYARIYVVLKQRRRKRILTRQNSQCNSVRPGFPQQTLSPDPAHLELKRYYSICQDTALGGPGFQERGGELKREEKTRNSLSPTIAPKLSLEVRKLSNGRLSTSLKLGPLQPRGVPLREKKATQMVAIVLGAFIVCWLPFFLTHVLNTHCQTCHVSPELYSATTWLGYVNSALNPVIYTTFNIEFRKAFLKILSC

With `O=C1OCCN1CCC1CCN(C[C@H]2COc3ccccc3O2)CC1` [Example 1, (S)-3-(2-(1-((2,3-dihydrobenzo[b][1,4]dioxin-2-yl)methyl)piperidin-4-yl)ethyl)oxazolidin-2-one], the “Latency to enter the dark compartment” value in assay [1] (dose 0.63 mg/kg) was determined as 60 ± 21 s; in assay [1] (dose 2.5 mg/kg) it was 78 ± 22 s.
With `O=C1OC[C@H](Cc2ccccc2)N1CCC1CCN(C[C@H]2COc3ccc(Br)cc3O2)CC1` [Example 26, (S)-4-benzyl-3-(2-(1-(((S)-7-bromo-2,3-dihydrobenzo[b][1,4]dioxin-2-yl)methyl)piperidin-4-yl)ethyl)oxazolidin-2-one], the Ki is 0.891 nM at dopaminergic receptor D2; 2.04 nM in assay [2]; 9.55 nM in assay [3]; 0.447 nM at dopaminergic receptor D3; 34.7 nM in assay [5]. The ED50 in assay [4] is 0.9 mg/kg. On D2 receptor, the “I.A.: Intrinsic activity on receptor D2 in vitro” value (from here on “I.A.: Intrinsic activity”) is 8 percentage of that of dopamine.
For the compound `O=C1OC[C@@H](CO)N1CCC1CCN(C[C@H]2COc3c(F)cc(Cl)cc3O2)CC1` [Example 62, (R)-3-(2-(1-(((S)-7-chloro-5-fluoro-2,3-dihydrobenzo[b][1,4]dioxin-2-yl)methyl)piperidin-4-yl)ethyl)-4-(hydroxymethyl)oxazolidin-2-one], the Ki is 1.58 nM on dopaminergic receptor D2; 1.62 nM in assay [2]; 10.5 nM in assay [3]; 0.347 nM on dopaminergic receptor D3; 30.9 nM in assay [5]. Besides, in assay [4], the ED50 was 2.1 mg/kg. Besides, the “I.A.: Intrinsic activity” value on D2 receptor was 0 percentage of that of dopamine.
With `O=C1COCCN1CCC1CCN(C[C@H]2COc3c(F)cc(F)cc3O2)CC1` [Example 91, (S)-4-(2-(1-((5,7-difluoro-2,3-dihydrobenzo[b][1,4]dioxin-2-yl)methyl)piperidin-4-yl)ethyl)morpholin-3-one], the Ki was 15.1 nM on dopaminergic receptor D2; 0.437 nM in assay [2]; 1.55 nM in assay [3]; 3.31 nM at dopaminergic receptor D3; 4.9 nM in assay [5]. Moreover, the 50% effect level in assay [4] (ED50) was put at a dose of 0.7 mg/kg. Moreover, at D2 receptor, the “I.A.: Intrinsic activity” value is listed as 24 percentage of that of dopamine.
With `O=C1OC[C@@H](CO)N1CCC1CCN(C[C@H]2COc3c(Cl)cc(F)cc3O2)CC1` [Example 63, (R)-3-(2-(1-(((S)-5-chloro-7-fluoro-2,3-dihydrobenzo[b][1,4]dioxin-2-yl)methyl)piperidin-4-yl)ethyl)-4-(hydroxymethyl)oxazolidin-2-one], the Ki on dopaminergic receptor D2 was 3.09 nM; in assay [2], 2.69 nM; in assay [3], 8.32 nM; at dopaminergic receptor D3 it was 1.32 nM; in assay [5], 53.7 nM. This compound also showed a median effective dose (ED50) in assay [4] of 0.2 mg/kg. For the same compound, the “I.A.: Intrinsic activity” value on D2 receptor is given as 5 percentage of that of dopamine.
Consider `O=C1OCCN1CCC1CCN(C[C@H]2COc3c(Cl)cc(F)cc3O2)CC1` [Example 13, (S)-3-(2-(1-((5-chloro-7-fluoro-2,3-dihydrobenzo[b][1,4]dioxin-2-yl)methyl)piperidin-4-yl)ethyl)oxazolidin-2-one], for which the Ki was 0.955 nM on dopaminergic receptor D2; 0.955 nM in assay [2]; 2.57 nM in assay [3]; 0.603 nM at dopaminergic receptor D3; 7.08 nM in assay [5]. Besides, the ED50 in assay [4] was 0.04 mg/kg. Further, at D2 receptor, the “I.A.: Intrinsic activity” value is recorded as 16 percentage of that of dopamine.
As for `Cc1ccc2c(c1)O[C@@H](CN1CCC(CCN3C(=O)OC[C@@H]3Cc3ccccc3)CC1)CO2` [Example 31, (S)-4-benzyl-3-(2-(1-(((S)-7-methyl-2,3-dihydrobenzo[b][1,4]dioxin-2-yl)methyl)piperidin-4-yl)ethyl)oxazolidin-2-one], the Ki was 1.17 nM at dopaminergic receptor D2; 1 nM in assay [2]; 2.95 nM in assay [3]; 0.525 nM on dopaminergic receptor D3; 5.13 nM in assay [5]. In assay [4], this compound yielded an ED50 of 2.1 mg/kg. Also, the “I.A.: Intrinsic activity” value at D2 receptor is listed as 0 percentage of that of dopamine. Also, in assay [1] (doses of 0.16, 0.63, 2.5 and 10 mg/kg), the “Effect on scopolamine-induced amnesia in the passive avoidance test” value is recorded as “opposed to the effect of scopolamine”.
